Where “and” joins values, the source holds several entries; their conditions need not be identical. Equal values may be shown once.
Columns and labels:
[1] = tested on: HT-29 (human colon adenocarcinoma); assay: Inhibition of cell proliferation (MTT), HT-29; format: cell-based; conditions: 48 h of treatment (footnote), average ±SD of three experiments
VEGF gene = VEGF gene expression by RT-qPCR in HT-29 cells; format: cell-based, human
Experimental: The effect on the expression of VEGF, hTERT and c-Myc genes has been studied for CA-4 and its derivatives that show selectivity indexes higher than 0.9 on the HT-29 cell line. The studied derivatives, together with the concentrations to which they have been tested, are CA-4 (15 μM); 4.1 (Gly, 5 μM); 4.5 (L-Pro, 25 μM); 4.9 (L-Met, 25 μM); 6.2 (D-Leu, 25 μM); 6.3 (D-Phe, 25 μM); 6.4 (D-Pro, 25 μM) and 6.5 (D-Ser, 10 μM). The expression of the genes was determined by RT-qPCR methodology, as described in the Materials and Methods section.
As regards AmCA-4 derivatives, the effect on the expression of the VEGF, hTERT and c-Myc genes has been studied on those that show IC50 in the low nanomolar range on the HT-29 cell line and/or on compounds whose selectivity indexes with respect to this cell line are higher than 1. The studied compounds, together with the concentrations to which they have been tested, are: CA-4 (15 μM), AmCA-4 (15 nM), 7.1 (7 nM), 7.2 (1.5 nM), 7.3 (4 nM), 7.4 (15 nM), 7.5 (2 nM), 7.7 (7 nM), 7.8 (15 nM), 7.9 (30 nM), 8.1 (7 nM), 8.2 (3 nM), 8.3 (10 nM), 8.4 (1.5 nM), 8.5 (4 nM), 8.7 (7 nM), 8.8 (3 nM) and 8.9 (4 nM).
HT-29 cells at 70–80% confluence were collected, and 1.5 × 10^5 cells were placed in a six-well plate in 1.5 mL of the medium. After 24 h, cells were incubated with the corresponding compounds for 48 h. Cells were collected, and the total cellular RNA from the HT-29 cells was isolated using an Ambion RNA Extraction Kit, according to the manufacturer’s instructions. The cDNA was synthesized by MMLV-RT with […] of extracted RNA and oligo(dT)15, according to the manufacturer’s instructions. Genes were amplified by a thermal cycler and StepOnePlus™ TaqMan® probes. TaqMan® Gene Expression Master Mix Fast, containing the appropriate buffer for the amplification conditions, dNTPs, thermostable DNA polymerase enzyme and a passive reference probe, was used. To amplify each of the genes, the predesigned primers sold by Life Technologies TaqMan® Gene Expression Assays Hs99999903-m1 (β-actin), Hs00900055-m1 (VEGF), Hs00972646-m1 (hTERT) and Hs00153408-m1 (c-Myc) were used.

[2] = tested on: HEK-293 (human embryonic kidney cells); assay: Inhibition of cell proliferation (MTT), nontumor HEK-293; format: cell-based; conditions: 48 h of treatment (footnote), average ±SD of three experiments
A-549 cells = assay: Cell cycle distribution by flow cytometry; format: cell-based, human
In short: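 A-549 cells were harvested, fixed in cold 70% ethanol (30 min, −20 °C), then stained with 50 µg/mL propidium iodide plus 100 µg/mL RNase A in PBS for 20 min at room temperature in the dark. Flow cytometry used 488 nm excitation and 620 nm emission, giving the percentage of cells in G2/M.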

purified tubulin = assay: Critical concentration (CrC) for the assembly of purified tubulin in GAB; format: biochemical; conditions: compound 27.5 μM, tubulin 25 μM, glycerol (GAB) and GTP assembly buffer; control 7.9 ± 1.2
Experimental: The effect on the self-assembly of tubulin was determined by measuring the critical concentration (CrC).

[3] = Homo sapiens, HT-29, 48 h, Table 1
[4] = HT-29, 48 h; discussion; concentration per compound
[5] = Homo sapiens, HT-29, 48 h, 25 μM, control 100
[6] = Homo sapiens, HEK293, 48 h, Table 1
[7] = A-549, 24 h, concentration per compound as in Tables 6 and 7
[8] = Homo sapiens, HT-29, 48 h, Table 2
[9] = Homo sapiens, HEK293, 48 h, Table 2
[10] = A-549, 24 h, concentration per compound as in Tables 6 and 7, control 14%
[11] = Homo sapiens, HT-29, 48 h, 4 nM, control 100
[12] = Homo sapiens; HT-29, 48 h, 25 μM; control 100

## COc1ccc(/C=C\c2cc(OC)c(OC)c(OC)c2)cc1OCC(=O)N[C@@H](CCSC)C(=O)O [Compound 4.9]
[1]; [3]
  IC50: 32000 ± 6000 nM
VEGF gene; [4]
  downregulation of VEGF gene expression: more than 55%
VEGF gene; [5]
  mrna remaining at 25 µM: 37 to 55%
[2]; [6]
  IC50: 40000 ± 4000 nM
A-549 cells; A-549, 24 h, 75 μM
  G0/G1: 76%
  G2/M: 13%
  S: 11%
A-549 cells; [7]
  Effect on the cell cycle: do not exert any significant effect on the cells
Purified tubulin
  CrC (critical concentration): 8.6 ± 0.4 µM

## COc1ccc(/C=C\c2cc(OC)c(OC)c(OC)c2)cc1OCC(=O)N[C@H](CC(C)C)C(=O)O [Compound 6.2]
[1]; [3]
  IC50: 47000 ± 9000 nM
VEGF gene; [5]
  mrna remaining at 25 µM: 40%
[2]; [6]
  IC50: 49000 ± 12000 nM
A-549 cells; A-549, 24 h, 75 μM
  G0/G1: 85 ± 1%
  G2/M: 12 ± 1%
  S: 3 ± 2%
A-549 cells; [7]
  Effect on the cell cycle: do not exert any significant effect on the cells
Purified tubulin
  CrC (critical concentration): 11 ± 3 µM

## COc1ccc(/C=C\c2cc(OC)c(OC)c(OC)c2)cc1NC(=O)[C@@H](N)C(C)C [Compound 8.3]
[1]; [8]
  IC50: 13.3 ± 0.5 nM
VEGF gene; Homo sapiens, HT-29, 48 h, 10 nM, control 100
  mrna remaining at 0.01 µM: 33%
[2]; [9]
  IC50: 7.6 ± 0.3 nM
A-549 cells; A-549, 24 h, 2 µM
  G0/G1: 65 ± 2%
  G2/M: 15 ± 2%
  S: 20 ± 1%
A-549 cells; [7]
  Effect on the cell cycle: do not accumulate a high percentage of cells in phase G2/M
Purified tubulin
  CrC (critical concentration): 9.3 ± 0.5 µM

## COc1ccc(/C=C\c2cc(OC)c(OC)c(OC)c2)cc1N [AmCA-4, 3′-aminocombretastatin A-4]
[1]; [8]
  IC50: 22 ± 1 nM
VEGF gene; Homo sapiens; HT-29, 48 h, 15 nM; control 100
  mrna remaining at 0.015 µM: 67%
[2]; [9]
  IC50: 7 ± 1 nM
A-549 cells; A-549, 24 h, 0.125 µM
  G0/G1: 26 ± 1%
  G2/M: 59 ± 2%
  S: 15 ± 2%
Purified tubulin
  CrC (critical concentration): 23 ± 3 µM

## COc1ccc(/C=C\c2cc(OC)c(OC)c(OC)c2)cc1NC(=O)[C@@H](N)C(C)O (stereo partly drawn) [Compound 8.7]
[1]; [8]
  IC50: 8 ± 2 nM
VEGF gene; [4]
  downregulation of VEGF gene expression: more than 60%
VEGF gene; Homo sapiens, HT-29, 48 h, 7 nM, control 100
  mrna remaining at 0.007 µM: 15%
[2]; [9]
  IC50: 14 ± 3 nM
A-549 cells; A-549, 24 h, 2 µM
  G0/G1: 31 ± 1%
  G2/M: 51 ± 2%
  S: 18 ± 1%
A-549 cells; [10]
  cells accumulated in the G2/M phase: more than 50%
Purified tubulin
  CrC (critical concentration): 12.3 ± 0.6 µM

## COc1ccc(/C=C\c2cc(OC)c(OC)c(OC)c2)cc1O [CA-4, combretastatin A-4]
[1]; Homo sapiens, HT-29, Table 1
  IC50: 4200 ± 500 nM
VEGF gene; Homo sapiens; HT-29, 48 h, 15 μM; control (DMSO) 100; normalized to β-actin
  mrna remaining at 15 µM: 40%
[2]; Homo sapiens, HEK293, Table 1
  IC50: 25000 ± 3000 nM
A-549 cells; 24 h
  cells accumulated in the G2/M phase: 60%
A-549 cells; A-549, 24 h, 0.05 μM
  G0/G1: 25 ± 1%
  G2/M: 60 ± 2%
  S: 15 ± 1%
Purified tubulin
  CrC (critical concentration): 21.5 µM and 21.5 ± 0.8 µM

## COc1ccc(/C=C\c2cc(OC)c(OC)c(OC)c2)cc1OCC(=O)N[C@H](CO)C(=O)O [Compound 6.5]
[1]; [3]
  IC50: 13000 ± 1000 nM
VEGF gene; Homo sapiens, HT-29, 48 h, 10 μM, control 100
  mrna remaining at 10 µM: 54%
[2]; [6]
  IC50: 14000 ± 4000 nM
A-549 cells; A-549, 24 h, 75 μM
  G0/G1: 64%
  G2/M: 18%
  S: 18%
A-549 cells; [7]
  Effect on the cell cycle: do not exert any significant effect on the cells
Purified tubulin
  CrC (critical concentration): 9.25 ± 0.16 µM

## COc1ccc(/C=C\c2cc(OC)c(OC)c(OC)c2)cc1NC(=O)[C@@H](N)Cc1ccccc1 [Compound 8.5]
[1]; [8]
  IC50: < 5 nM
[1]; Table 2
  IC50: 4.4 ± 2.5 nM
VEGF gene; [11]
  mrna remaining at 0.004 µM: 37%
[2]; [9]
  IC50: < 5 nM
[2]; Table 2
  IC50: 3.5 ± 1.9 nM
A-549 cells; A-549, 24 h, 0.5 µM
  G0/G1: 46 ± 2%
  G2/M: 26 ± 10%
  S: 28 ± 11%
Purified tubulin
  CrC (critical concentration): 9.1 ± 0.9 µM

## COc1ccc(/C=C\c2cc(OC)c(OC)c(OC)c2)cc1NC(=O)[C@H](Cc1ccccc1)NC(=O)OCC1c2ccccc2-c2ccccc21 [Compound 7.5]
[1]; [8]
  IC50: 8 ± 3 nM
VEGF gene; [4]
  downregulation of VEGF gene expression: more than 60%
VEGF gene; Homo sapiens, HT-29, 48 h, 2 nM, control 100
  mrna remaining at 0.002 µM: 16%
[2]; [9]
  IC50: 2.3 ± 2 nM
A-549 cells; A-549, 24 h, 2 µM
  G0/G1: 34 ± 2%
  G2/M: 46 ± 3%
  S: 20 ± 1%
Purified tubulin
  CrC (critical concentration): 8.1 ± 1.6 µM

## COc1ccc(/C=C\c2cc(OC)c(OC)c(OC)c2)cc1OCC(=O)N[C@H](C(=O)O)C(C)C [Compound 4.2]
[1]; Homo sapiens, HT-29, Table 1
  IC50: 12000 ± 5000 nM
VEGF gene; [12]
  mrna remaining at 25 µM: 89%
[2]; Homo sapiens, HEK293, Table 1
  IC50: 4000 ± 1000 nM
A-549 cells; A-549, 24 h, 50 μM
  G0/G1: 17 ± 2%
  G2/M: 67 ± 4%
  S: 16 ± 3%
A-549 cells; [10]
  cells accumulated in the G2/M phase: 50–70%
Purified tubulin
  CrC (critical concentration): 9.3 ± 0.3 µM

## COc1ccc(/C=C\c2cc(OC)c(OC)c(OC)c2)cc1OCC(=O)N[C@H](Cc1ccccc1)C(=O)O [Compound 6.3]
[1]; Homo sapiens, HT-29, Table 1
  IC50: 27000 ± 5000 nM
VEGF gene; [12]
  mrna remaining at 25 µM: 77%
[2]; Homo sapiens, HEK293, Table 1
  IC50: 46000 ± 6000 nM
A-549 cells; A-549, 24 h, 75 μM
  G0/G1: 74 ± 3%
  G2/M: 14 ± 2%
  S: 11 ± 6%
A-549 cells; [7]
  Effect on the cell cycle: do not exert any significant effect on the cells
Purified tubulin
  CrC (critical concentration): 9.2 ± 0.4 µM

## COc1ccc(/C=C\c2cc(OC)c(OC)c(OC)c2)cc1NC(=O)[C@@H](N)CCSC [Compound 8.9]
[1]; [8]
  IC50: < 5 nM
[1]; Table 2
  IC50: 4.9 ± 0.1 nM
VEGF gene; [11]
  mrna remaining at 0.004 µM: 48%
[2]; [9]
  IC50: < 5 nM
[2]; Table 2
  IC50: 3.7 ± 0.3 nM
A-549 cells; A-549, 24 h, 0.2 µM
  G0/G1: 30 ± 1%
  G2/M: 51 ± 2%
  S: 19 ± 1%
Purified tubulin
  CrC (critical concentration): 8.5 ± 1.2 µM

## COc1ccc(/C=C\c2cc(OC)c(OC)c(OC)c2)cc1NC(=O)[C@H](C)N [Compound 8.2]
[1]; [8]
  IC50: < 5 nM
[1]; Table 2
  IC50: 3 ± 0.3 nM
VEGF gene; Homo sapiens, HT-29, 48 h, 3 nM, control 100
  mrna remaining at 0.003 µM: 84%
[2]; [9]
  IC50: < 5 nM
[2]; Table 2
  IC50: 4 ± 0.1 nM
A-549 cells; A-549, 24 h, 3 µM
  G0/G1: 28 ± 1%
  G2/M: 58 ± 5%
  S: 14 ± 4%
Purified tubulin
  CrC (critical concentration): 13.9 ± 1.5 µM

Reference: PMC7037732, “Synthesis of Combretastatin A-4 and 3′-Aminocombretastatin A-4 derivatives with Aminoacid Containing Pendants and Study of their Interaction with Tubulin and as Downregulators of the VEGF, hTERT and c-Myc Gene Expression” (Molecules, 2020)
